Results: patent publication US9695155B2, “Herbicidal substituted pyrimidinyloxy benzene compounds” (E. I. DU PONT DE NEMOURS AND COMPANY, priority 2013, dated 2017)

Key:
[1] = system: barnyardgrass; assay: Test A preemergence; format: in vivo, Echinochloa crus-galli
Summary of the method: (§1)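 Visual injury scored 0–100 (100 = complete control) against untreated controls about 10 days after treatment in a greenhouse. Test chemicals, formulated with surfactant in non-phytotoxic solvent, were sprayed on soil preemergence or on 2-10 cm, one- to two-leaf plants postemergence.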

[2] = system: large (Lg) crabgrass; assay: Test A preemergence; format: in vivo, Digitaria sanguinalis
Summary of the method: as §1

[3] = system: pigweed; assay: Test A preemergence; format: in vivo, Amaranthus retroflexus
Summary of the method: as §1

[4] = system: corn; assay: Test A preemergence; format: in vivo, Zea mays
Summary of the method: as §1

[5] = system: large (Lg) crabgrass; assay: Test A postemergence; format: in vivo, Digitaria sanguinalis
Summary of the method: as §1

[6] = system: rice; assay: Test B flooded paddy test; format: in vivo, Oryza sativa; conditions: Flood, 250 g ai/ha, 0 to 100 scale where 0 is no effect and 100 is complete control
Summary of the method: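 Plants were grown to the 2-leaf stage, then pots were flooded to 3 cm above the soil and compounds were applied directly into the paddy water. That depth was held throughout, and after 13 to 15 days in the greenhouse injury was rated visually against controls on a 0–100 scale (0 no effect, 100 complete control).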

[7] = system: giant foxtail; assay: Test C preemergence; format: in vivo, Setaria faberii
Excerpt: Seeds of plant species selected from blackgrass (Alopecurus myosuroides), Italian ryegrass (Lolium multiflorum), wheat, winter (winter wheat, Triticum aestivum), galium (catchweed bedstraw, Galium aparine), corn (Zea mays), large (Lg) crabgrass (Digitaria sanguinalis), giant foxtail (Setaria faberii), johnsongrass (Sorghum halepense), lambsquarters (Chenopodium album), morningglory (Ipomoea coccinea), yellow nutsedge (Cyperus esculentus), pigweed (Amaranthus retroflexus), ragweed (common ragweed, Ambrosia elatior), soybean (Glycine max), barnyardgrass (Echinochloa crus-galli), oilseed rape (Brassica napus), waterhemp (common waterhemp, Amaranthus rudis), kochia (Kochia scoparia), wild oat (Avena fatua), surinam grass (Brachiaria decumbens), foxtail, green (green foxtail, Setaria viridis), goosegrass (Eleusine indica), bromegrass, downy (downy bromegrass, Bromus tectorum), nightshade (eastern black nightshade, Solanum ptycanthum), cocklebur (common cocklebur, Xanthium strumarium), cupgrass, woolly (woolly cupgrass, Eriochloa villosa), bermudagrass (Cynodon dactylon), sunflower, (common oilseed sunflower, Helianthus annuus), Russian thistle (Salsola kali), and velvetleaf (Abutilon theophrasti) were planted into a blend of loam soil and sand and treated preemergence with test chemicals formulated in a non-phytotoxic solvent mixture which included a surfactant.
At the same time, plants selected from these crop and weed species and also barley, winter (winter barley, Hordeum vulgare), windgrass (Apera spica-venti), chickweed (common chickweed, Stellaria media), deadnettle (henbit deadnettle, Lamium amplexicaule), and canarygrass (littleseed canarygrass, Phalaris minor) were planted in pots containing Redi-Earth® planting medium (Scotts Company, 14111 Scottslawn Road, Marysville, Ohio 43041) comprising spaghnum peat moss, vermiculite, wetting agent and starter nutrients and treated with postemergence applications of test chemicals formulated in the same manner. Plants ranged in height from 2 to 18 cm (1- to 4-leaf stage) for postemergence treatments. Treated plants and controls were maintained in a greenhouse for 13 to 15 days, after which time all species were compared to controls and visually evaluated. Plant response ratings, summarized in Table C, are based on a scale of 0 to 100 where 0 is no effect and 100 is complete control. A dash (-) response means no test result.

[8] = system: yellow nutsedge; assay: Test C preemergence; format: in vivo, Cyperus esculentus
Summary of the method: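 Preemergence: seeds sown in a loam soil–sand blend and sprayed with test chemical in a non-phytotoxic solvent mixture containing surfactant. Postemergence: plants at 2 to 18 cm (1- to 4-leaf stage) in peat-based medium, treated with the same formulation. Greenhouse 13 to 15 days, then visual rating 0 (no effect) to 100 (complete control).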

[9] = 125 g ai/ha, 0 to 100 scale where 0 is no effect and 100 is complete control
[10] = 500 g ai/ha, 0 to 100 scale, 0 no effect, 100 complete control, approx. 10 days
[11] = 500 g ai/ha, 0 to 100 scale where 0 is no effect and 100 is complete control
[12] = 16 g ai/ha, preemergence, scale 0 to 100 (0 no effect, 100 complete control)
[13] = 62 g ai/ha, preemergence, scale 0 (no effect) to 100 (complete control)
[14] = 125 g ai/ha, preemergence, scale 0 (no effect) to 100 (complete control)
[15] = Preemergence, 31 g ai/ha, scale 0 to 100, 0 no effect, 100 complete control
[16] = Preemergence, 62 g ai/ha, scale 0 to 100, 0 no effect, 100 complete control

Row | Structure (SMILES) | Plant response rating, Barnyardgrass [1, 9] | Plant response rating, Crabgrass, Large [2, 9] | Plant response rating, Corn [4, 9] | Plant response rating, Crabgrass, Large [5, 11] | Plant response rating, Rice [6] | Foxtail, Giant plant response rating [7, 12] | Foxtail, Giant plant response rating [7, 13] | Foxtail, Giant plant response rating [7, 14] | Plant response rating, Foxtail, Giant [7, 15] | Nutsedge, Yellow plant response rating [8, 12] | Nutsedge, Yellow plant response rating [8, 13] | Nutsedge, Yellow plant response rating [8, 14] | Barnyardgrass plant response rating [1, 11] | Crabgrass, Large plant response rating [2, 11] | Pigweed plant response rating (0 to 100 scale) ([3]; 125 g ai/ha) | Pigweed plant response rating [3, 11] | Corn plant response rating [4, 11] | Crabgrass, Large plant response rating [5, 9] | other results
1 | FC(F)(F)c1cnn(-c2ccccc2Oc2ncc(Br)cn2)c1 [Compound 18, 5-bromo-2-[2-[4-(trifluoromethyl)-1H-pyrazol-1-yl]phenoxy]pyrimidine] | – | – | – | – | – | – | – | – | – | – | – | – | – | – | – | – | – | – | pest or weed control at 125 g/ha ([1]; Echinochloa crus-galli, pre-emergence, 240 h, 125 g ai/ha, 0 to 100 scale where 0 is no effect and 100 is complete control, read-out: Plant response rating, Barnyardgrass): 90%; pest or weed control at 500 g/ha ([1]; Echinochloa crus-galli, pre-emergence, 240 h, 500 g ai/ha, 0 to 100 scale, 0 no effect, 100 complete control, approx. 10 days, read-out: Barnyardgrass plant response rating): 100%; pest or weed control at 125 g/ha ([2]; Digitaria sanguinalis, pre-emergence, 240 h, 125 g ai/ha, 0 to 100 scale where 0 is no effect and 100 is complete control, read-out: Plant response rating, Crabgrass, Large): 100%; pest or weed control at 500 g/ha ([2]; Digitaria sanguinalis, pre-emergence, 240 h, 500 g ai/ha, 0 to 100 scale, 0 no effect, 100 complete control, approx. 10 days, read-out: Crabgrass, Large plant response rating): 100%; pest or weed control at 125 g/ha ([3]; Amaranthus retroflexus, pre-emergence, 125 g ai/ha, 0 to 100 scale where 0 is no effect and 100 is complete control, read-out: Plant response rating, Pigweed): 100%; pest or weed control at 500 g/ha ([3]; Amaranthus retroflexus, pre-emergence, 240 h, 500 g ai/ha, 0 to 100 scale, 0 no effect, 100 complete control, approx. 10 days, read-out: Pigweed plant response rating): 100%; Corn plant response rating (crop injury, 0 = no effect, 100 = complete kill) at 125 g/ha ([4]; Zea mays, pre-emergence, 240 h, 125 g ai/ha, 0 to 100 scale where 0 is no effect and 100 is complete control): 0%; plant injury at 500 g/ha ([4]; Zea mays, pre-emergence, 240 h, 500 g ai/ha, 0 to 100 scale, 0 no effect, 100 complete control, approx. 10 days, read-out: Corn plant response rating): 10%; pest or weed control at 125 g/ha ([5]; Digitaria sanguinalis, post-emergence, 240 h, 125 g ai/ha, 0 to 100 scale where 0 is no effect and 100 is complete control, read-out: Plant response rating, Crabgrass, Large): 70%; pest or weed control at 500 g/ha ([5]; Digitaria sanguinalis, post-emergence, 240 h, 500 g ai/ha, 0 to 100 scale, 0 no effect, 100 complete control, read-out: Plant response rating Crabgrass, Large): 100%; plant injury at 250 g/ha ([6]; Oryza sativa, read-out: Plant response rating, Rice): 0%; pest or weed control at 62 g/ha ([7]; Setaria faberi, pre-emergence, 62 g ai/ha, preemergence, scale 0 (no effect) to 100 (complete control), read-out: Foxtail, Giant plant response rating): 100%; pest or weed control at 125 g/ha ([7]; Setaria faberi, pre-emergence, 125 g ai/ha, preemergence, scale 0 (no effect) to 100 (complete control), read-out: Foxtail, Giant plant response rating): 100%; pest or weed control at 250 g/ha ([7]; Setaria faberi, pre-emergence, 250 g ai/ha, preemergence, scale 0 (no effect) to 100 (complete control), read-out: Foxtail, Giant plant response rating): 100%; pest or weed control at 31 g/ha ([7]; Setaria faberi, pre-emergence, Preemergence, 31 g ai/ha, scale 0 to 100, 0 no effect, 100 complete control, read-out: Plant response rating, Foxtail, Giant): 65%; pest or weed control at 62 g/ha ([8]; Cyperus, pre-emergence, 62 g ai/ha, preemergence, scale 0 (no effect) to 100 (complete control), read-out: Nutsedge, Yellow plant response rating): 15%; pest or weed control at 125 g/ha ([8]; Cyperus, pre-emergence, 125 g ai/ha, preemergence, scale 0 (no effect) to 100 (complete control), read-out: Nutsedge, Yellow plant response rating): 25%; pest or weed control at 250 g/ha ([8]; Cyperus, pre-emergence, 250 g ai/ha, preemergence, scale 0 (no effect) to 100 (complete control), read-out: Nutsedge, Yellow plant response rating): 35%; pest or weed control at 31 g/ha ([8]; Cyperus, pre-emergence, Preemergence, 31 g ai/ha, scale 0 to 100, 0 no effect, 100 complete control, read-out: Plant response rating, Nutsedge, Yellow): 10%
2 | Fc1cnc(Oc2cccc(C(F)F)c2-n2cc(Br)cn2)nc1 [Compound 112] | 70 | 100 | 0 | 100 | 0 | 15 | 100 | 100 | 85 | 0 | 15 | 40 | – | – | – | – | – | – | Barnyardgrass plant response rating [1, 10]: 100; Crabgrass, Large plant response rating [2, 10]: 100; Plant response rating, Pigweed [3, 9]: 100; Pigweed plant response rating [3, 10]: 100; Corn plant response rating [4, 10]: 50; Plant response rating, Crabgrass, Large [5, 9]: 60; Plant response rating, Nutsedge, Yellow [8, 15]: 5
3 | Fc1cccc(Oc2ncc(Cl)cn2)c1-n1cc(I)cn1 [Compound 179] | 20 | 100 | 0 | 100 | 0 | 40 | 100 | 100 | 85 | 0 | 10 | 15 | 100 | 100 | 100 | 100 | 10 | 90 | –
4 | CCOc1cnn(-c2ccccc2Oc2ncc(Cl)cn2)c1 [Compound 187] | – | – | – | 100 | 0 | 0 | – | 85 | – | 0 | – | 5 | 100 | 100 | 100 | 100 | 40 | 60 | Barnyardgrass plant response rating (0 to 100 scale, 0 is no effect, 100 is complete control) ([1]; 125 g ai/ha): 80; Crabgrass, Large plant response rating (0 to 100 scale) ([2]; 125 g ai/ha): 100; Corn plant response rating (0 to 100 scale) ([4]; 125 g ai/ha): 0; Plant response rating, Foxtail, Giant [7, 16]: 85; Plant response rating, Nutsedge, Yellow [8, 16]: 5
